Experimental data: patent US20120136050A1, “USE OF A MELATONIN AGONIST FOR THE TREATMENT OF SLEEP DISORDERS INCLUDING PRIMARY INSOMNIA” (VANDA PHARMACEUTICALS INC., priority 2009, published 2012)
“Also recorded” adds a separate entry of the source.

How the values were obtained:
[1] = Plasma exposure after oral administration (Cmax, AUC); format: in vivo, human
[2] = tested on: healthy volunteers; assay: Previous Phase I single and multiple ascending dose studies, safety and tolerability; format: in vivo
Protocol: (§1) A 28-day Phase II study was also conducted to investigate the effects of Compound A in elderly patients with primary insomnia. […] While patients with the lowest melatonin levels ([…]) may have benefited from Compound A treatment more than placebo, the design of this study made it difficult to interpret the effects of Compound A on the sleep-wake cycle.
(§2) The oral doses selected were based on safety and efficacy data obtained from previous Compound A pre-clinical and clinical trials. […] Though not optimally designed to assess the chronobiotic potential of Compound A, clinical trial CN116-002 measured the effects Compound A on the circadian sleep-wake cycle. […] The doses selected for the study (10 mg, 20 mg, 50 mg, and 100 mg) were within the expected dose range for efficacy. The safety of the selected doses for this study is supported by previous clinical studies. […] The highest dose in the study, 100 mg, is well within the safety margin established in both Phase I single and multiple ascending dose trials and in a Phase II study.

[3] = Particle size by laser diffraction (Malvern Mastersizer); format: physicochemical
Protocol: Particle size will also affect the dose selected. At larger particle sizes, i.e., D50 is greater than about 100 m, e.g., about 100 m to about 200 m oral doses at the higher end, i.e., up to about 100 mg are effective, whereas at smaller particle sizes, i.e., D50 is less than about 100 m, e.g., about 20 m to about 50 m, lower doses, i.e., less than about 100 mg, are useful, e.g., about 10 mg to about 80 mg and about 20 mg to about 50 mg. (Particle size measurements supporting the above were made laser diffraction using a Malvern Mastersizer. The D50 (D10, D90, D100) value means that 50% (10%, 90%, 100%) of the particles by weight are of the indicated diameter or smaller.) In one embodiment of the invention, the above doses are administered in immediate release form, i.e., a non-controlled release formulation.

[4] = Solubility in solvents and water; format: physicochemical
[5] = tested on: healthy male and female subjects with induced transient insomnia; assay: Example 2: single oral dose study in induced transient insomnia (PSG); format: in vivo, human
Protocol: A multi-center, randomized, double-blind, placebo-controlled, parallel-group study was conducted to investigate the efficacy and safety of single oral doses of VEC-162 (20 mg, 50 mg, and 100 mg) and matching placebo in healthy male and female subjects with induced transient insomnia. Approximately four hundred subjects were randomized in approximately a 1:1:1:1 ratio to the treatment groups.
In general, a screening period began 14 to 35 days prior to the start of the evaluation period, which was Day 1. Prior to Day 1, subjects were asked to increase their sleep time to 9 hours per night. Drug, or placebo, was administered on Night 1, approximately 0.5 hour prior to lights off.
The primary efficacy variable was LPS. LPS is defined as the length of time elapsed between lights off and onset of persistent sleep. In this trial, persistent sleep is defined as the point at which 10 minutes of uninterrupted sleep has begun. Sleep was determined on the basis of polysomnography (PSG).
Wake After Sleep Onset (WASO): WASO is defined as the time spent awake between onset of sleep and Lights On during Night 1, determined by PSG.
Latency to Non-Awake (LNA): LNA is defined as the number of minutes to reach any stage of sleep.
Total Sleep Time (TST): TST is defined as the number of minutes spent asleep during the entire time in bed.

[6] = tested on: patients with chronic primary insomnia; assay: Phase III placebo-controlled 4-week trial in chronic primary insomnia (PSG); format: in vivo, human; details: for fell asleep faster than placebo group (PSG): first night of treatment, p<0.001
Protocol: A phase III, multi-center, placebo-controlled, 4-week trial evaluated 322 patients with chronic primary insomnia. Patients were randomized to receive either 20 mg or 50 mg of Compound A or placebo over the course of four weeks. The primary endpoint consisted of the evaluation of the immediate and short-term (average of Nights 1 and 8) ability of Compound A to improve sleep onset as measured by Latency to Persistent Sleep (LPS) through polysomnography (PSG). Secondary endpoints evaluated Compound A's ability to maintain improvements on sleep onset after long-term (average of Nights 22 and 29) use of the compound as well as measures of sleep duration (Total Sleep Time, TST) and sleep maintenance (Wake After Sleep Onset, WASO). Patients were eligible for the study if symptoms of insomnia were chronic and LPS was greater than 30 minutes.

[7] = tested on: circadian sleep-wake cycle; assay: Clinical trial CN116-002, effects on the circadian sleep-wake cycle; format: in vivo, human; details: 50 mg
Protocol: as §2

[8] = tested on: elderly patients with primary insomnia; assay: 28-day Phase II study in elderly patients with primary insomnia; format: in vivo, human
Protocol: as §1

[9] = material used in Example 1 study
[10] = material used in Example 2 study, material used in sleep latency study
[11] = 50 mg single oral dose, p<0.001
[12] = single oral dose, conclusion from Examples 1 and 2
[13] = 20 mg, Nights 1 and 8 vs baseline, p<0.001 vs placebo
[14] = 20 mg, Nights 22 and 29 vs baseline, nss
[15] = 20 mg, Nights 22 and 29 vs baseline, p<0.001 vs placebo
[16] = 50 mg, Nights 1 and 8 vs baseline, p<0.001 vs placebo
[17] = 50 mg, Nights 22 and 29 vs baseline, nss

For CCC(=O)NC[C@@H]1C[C@H]1c1cccc2c1CCO2 [Compound A, N-[[(1R,2R)-2-(2,3-dihydro-1-benzofuran-4-yl)cycloproply]methyl]propanamide], the “effect of covariates on exposure levels” value ([1]; age, weight, height, gender, creatinine clearance, or ALT baseline levels) was “not affected”, the “AUC increase with dose” value ([1]; oral doses 10 to 100 mg) was “approximately proportional to dose” and the “Cmax increase with dose” value ([1]; oral doses 10 to 100 mg) was “approximately proportional to the dose”. For the same compound, the “safety and tolerability, multiple doses” value ([2]; doses up to 150 mg daily for 28 days, healthy subjects (b53 also elderly subjects with chronic insomnia)) was “well-tolerated; also recorded: safety and tolerability of Compound A at doses up to 150 mg has been demonstrated”, the “safety and tolerability, single dose” value ([2]; healthy subjects, single oral dose of 1 mg to 300 mg) was “safe and well tolerated” and the particle size D10 [3, 9] was 10 µm. It also gave a particle size D50 [3, 9] of 115 µm, a particle size D90 [3, 9] of 316 µm and a particle size D100 [3, 9] of 631 µm. For the same compound, the particle size D10 [3, 10] was 5 µm, the particle size D50 [3, 10] was 25 µm and the particle size D90 [3, 10] was 72 µm. For the same compound, the particle size D100 [3, 10] was 316 µm, the “dependence of aqueous solubility on pH” value [4] was “practically unaffected by pH” and the “solubility in organic solvents” value ([4]; 95% ethanol, methanol, acetonitrile, ethyl acetate, isopropanol, polyethylene glycols (PEG-300 and PEG-400)) was “very soluble or freely soluble”. The “native pH of a saturated solution in water” value ([4]; saturated solution in water) was 8.5, the solubility in water ([4]; water) was “only slightly soluble” and the “Latency to Persistent Sleep (LPS): Improvement compared with placebo” value ([5]; 20 mg single oral dose, p<0.001) was 21.5 min. The “Total Sleep Time (TST): Improvement compared with placebo” value ([5]; 20 mg single oral dose, p<0.002) was 33.7 min, the “Latency to Non-Awake (LNA): Improvement compared with placebo” value ([5]; 20 mg single oral dose, p<0.006) was 11.1 min and the “Wake After Sleep Onset (WASO): Improvement compared with placebo” value ([5]; 20 mg single oral dose, p<0.02) was 24.2 min. The “Latency to Non-Awake (LNA): Improvement compared with placebo” value [5, 11] was 14.3 min, the “Latency to Persistent Sleep (LPS): Improvement compared with placebo” value [5, 11] was 26.3 min and the “Total Sleep Time (TST): Improvement compared with placebo” value [5, 11] was 47.9 min. For the same compound, the “Wake After Sleep Onset (WASO): Improvement compared with placebo” value ([5]; 50 mg single oral dose, p=0.001) was 33.7 min, the “Latency to Persistent Sleep (LPS): Improvement compared with placebo” value ([5]; 100 mg single oral dose, p<0.001) was 22.8 min and the “Latency to Non-Awake (LNA): Improvement compared with placebo” value ([5]; 100 mg single oral dose, p<0.002) was 12.3 min. The “Total Sleep Time (TST): Improvement compared with placebo” value ([5]; 100 mg single oral dose, p<0.005) was 29.6 min, the “Wake After Sleep Onset (WASO): Improvement compared with placebo” value ([5]; 100 mg single oral dose, p=0.081) was 17.5 min and the tolerability ([5]; all doses (20 mg, 50 mg, 100 mg)) was “well-tolerated”. The “efficacy of 20 mg relative to 100 mg” value [5, 12] was “comparable or superior to 100 mg”, the “efficacy of 50 mg relative to 100 mg” value [5, 12] was “more efficacious than 100 mg” and the “tolerability and safety profile” value ([6]; 20 mg or 50 mg over four weeks) was “well-tolerated and exhibited a safety profile generally similar to placebo”. For the same compound, the “mean WASO improved by” value ([6]; 20 mg, Nights 1 and 8 vs baseline, nss) was 12.2 min, the “mean LPS improved by” value [6, 13] was 45.0 min and the “mean TST during the first third of the night improved by” value (“mean TST during the first third” below) [6, 13] was 40.9 min. The “mean WASO during the first third of the night improved by” value (shortened to “mean WASO during the first third”) ([6]; 20 mg, Nights 1 and 8 vs baseline, p<0.01 vs placebo) was 2.3 min, the “mean TST improved by” value ([6]; 20 mg, Nights 1 and 8 vs baseline, p=0.089 vs placebo) was 51.4 min and the “mean WASO during the first third” value [6, 14] was 3.1 min. For the same compound, the “mean WASO improved by” value [6, 14] was 17.7 min, the “mean LPS improved by” value [6, 15] was 49.4 min and the “mean TST during the first third” value [6, 15] was 45.2 min. For the same compound, the “mean TST improved by” value ([6]; 20 mg, Nights 22 and 29 vs baseline, p=0.057 vs placebo) was 60.3 min, the “fell asleep faster than placebo group (PSG)” value ([6]; 20 mg) was 22.9 min and the “mean WASO improved by” value ([6]; 50 mg, Nights 1 and 8 vs baseline, nss) was 14.1 min. The “mean LPS improved by” value [6, 16] was 46.4 min, the “mean TST during the first third” value [6, 16] was 39.4 min and the “mean WASO during the first third” value ([6]; 50 mg, Nights 1 and 8 vs baseline, p<0.05 vs placebo) was 1.8 min. The “mean TST improved by” value ([6]; 50 mg, Nights 1 and 8 vs baseline, p=0.074 vs placebo) was 52.0 min, the “mean WASO during the first third” value [6, 17] was 1.8 min and the “mean WASO improved by” value [6, 17] was 10.2 min. For the same compound, the “mean TST improved by” value ([6]; 50 mg, Nights 22 and 29 vs baseline, nss vs placebo) was 48.6 min, the “mean TST during the first third” value ([6]; 50 mg, Nights 22 and 29 vs baseline, p<0.01 vs placebo) was 40.1 min and the “mean LPS improved by” value ([6]; 50 mg, Nights 22 and 29 vs baseline, p=0.016 vs placebo) was 45.1 min. The “fell asleep faster than placebo group (PSG)” value ([6]; 50 mg) was 25.9 min, the “effect on circadian rhythms” value [7] was “consistently shifted circadian rhythms” and the “number of nocturnal awakenings versus placebo” value [8] was “did not differentiate from placebo”. The “sleep latency versus placebo” value [8] was “did not differentiate from placebo”.
